Test results taken from patent US10023561B2, “Fumagillol heterocyclic compounds and methods of making and using same” (Zafgen, Inc., priority 2015, dated 2018).
“And” between values parts separate entries of the source, which are not always exact repeats. Equal values may be shown once. Where a name gives a salt, the structure may show the parent alone. Read-outs that look alike come from different tables or passages of the source.

Columns and labels:
[1] = tested on: Diet Induced Obese (DIO) C57BL/6 mice; assay: 10 day DIO mouse model (body weight, food intake, hematology, blood chemistry); format: in vivo
Source text: The objective of this study design was to investigate the efficacy of disclosed compounds in a 10 day DIO mouse model. Effects on body weight, food intake, hematology and blood chemistry were the primary readouts of this study design. […] Mice were fed Research Diets D12492 (60% Kcal fat, 20% Kcal carbohydrate and 20% protein) and provided water ad libitum. DIO mice were received and housed in the facility for approximately two weeks prior to the start of test article administration. On Day −4 or −3, mice were randomized into study groups based on body weight and body weights were continued to be recorded daily for the duration of the study. Daily food intake was assessed starting on Study Day −2 by weighing of the food with hopper together to avoid loss of food in transfer.
(§1) Compounds were formulated into a 100% DMSO stock (at 9 mg/mL) prior to the start, and further diluted into the target working concentration using the vehicle of 10% DMSO in water. Prior to test article administration, starting on Day −3 a dosing acclimation occurred with all animals receiving a subcutaneous injection of vehicle (10% DMSO) only for 3 days. Starting on Day 1, test compounds or vehicle were administered based on individual body weight, subcutaneously, once a day for 10 days. All mice were sacrificed on Day 11, 24 hours following the final dosing on Day 10. After sacrifice, whole blood was collected and analyzed for hematology and blood chemistry parameters.
(§2) Compounds were tested vs. vehicle at various doses (1.0, 0.5, 0.3, 0.1, 0.03 mpk sc (mg per kg animal weight delivered subcutaneously), and the results are shown in Table 2 below.

[2] = tested on: human fibrosarcoma cell line HT-1080; assay: HT-1080 cell proliferation assay (CellTiter-Glo, 72 hours); format: cell-based
[3] = tested on: Sprague Dawley rats on 45% high fat diet; assay: 11 day rat DIO model (body weight, food intake, hematology, blood chemistries); format: in vivo
Source text: The objective of this study design is to investigate the efficacy of disclosed compounds in an 11 day rat DIO model used to screen compounds for pharmacologic efficacy on endpoints related to obesity and metabolism. Effects on body weight, food intake, hematology and blood chemistries were the primary readouts of this study design. […] Rats were fed Research Diets D12451 (45% High Fat) and provided water ad libitum. Rats were received and housed in the facility for at least two or three weeks prior to start of test article administration. On Day −4 or −3, rats were randomized into study groups based on body weight and body weights were continued to be recorded daily for the duration of the study. Daily food intake was assessed starting on Study Day −2 by weighing the hopper including the food to avoid loss of food in transfer.
as §1, with “for 11” for “for 10”, “All animals” for “All mice”, “11, approximately 2” for “11, 24”, “Day 11.” for “Day 10.”
as §2

recombinant human MetAP2 = recombinant human MetAP2 (Homo sapiens (Human), UniProt P50579); assay: recombinant human MetAP2 enzyme inhibition assay (MAS peptide / amino acid oxidase / Amplex UltraRed); format: biochemical; conditions: recombinant human MetAP2, 25 minutes at 25° C.
Procedure: Compounds are tested for their capacity to inhibit recombinant human MetAP2 activity using the following assay.
Flag tagged Human recombinant MetAP2 expressed and isolated for use as the enzyme source. 10 mM stock solutions of compounds were prepared in 100% DMSO and further diluted in 100% DMSO required concentration to 1 mM stocks. The stock compound solutions and DMSO vehicle controls were diluted to target final compound concentrations using assay buffer to a final concentration of 50 mM HEPES containing 100 mM NaCl, pH adjusted to 7.5. The MAS peptide was formulated to a 7.5 mM stock in distilled water and prior to use further diluted 1:4. […] 40 μl of enzyme was mixed with 100 μl of MnCl2 then further diluted in assay buffer to a final concentration of 16 μg/ml. To test for compound effect on MetAP2 enzyme activity, 5 μl of test compound, 10 μl of MAS substrate/amino acid oxidase mixture, 10 μl of MetAP2 was added to test wells in a 384 well black plate with blank wells containing no enzyme, replaced with 10 μl of assay buffer. All compounds were tested in duplicate on two occasions on the same day.
The plate was sealed with a TopSeal A cover and mixed briefly on an orbital mixer at 900 rpm. The plate was incubated for a further 25 minutes at 25° C. […] At the end of the MetAP2 incubation 25 μl Amplex/HRP mixture per well was added and the plate read plate on a plate reader.

[4] = HT-1080, 72 h, read-out: HT-1080 EC50 (nM)
[5] = HT-1080 cells, 72 hours incubation, CellTiter-Glo, read-out: HT-1080 EC50

recombinant human MetAP2, sequence (P50579 whole entry): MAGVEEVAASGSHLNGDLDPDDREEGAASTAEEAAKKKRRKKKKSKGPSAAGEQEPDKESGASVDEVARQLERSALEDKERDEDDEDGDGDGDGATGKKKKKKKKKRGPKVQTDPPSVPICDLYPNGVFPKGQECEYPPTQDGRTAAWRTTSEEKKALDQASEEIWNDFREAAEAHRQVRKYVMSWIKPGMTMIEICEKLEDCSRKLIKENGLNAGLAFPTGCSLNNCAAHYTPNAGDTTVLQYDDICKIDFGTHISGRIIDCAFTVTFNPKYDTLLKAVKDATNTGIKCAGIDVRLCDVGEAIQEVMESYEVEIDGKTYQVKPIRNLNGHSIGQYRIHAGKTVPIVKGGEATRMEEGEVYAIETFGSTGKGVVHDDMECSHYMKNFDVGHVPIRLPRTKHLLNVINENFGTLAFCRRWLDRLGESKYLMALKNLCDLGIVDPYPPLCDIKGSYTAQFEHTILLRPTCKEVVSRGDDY

## CO[C@@H]1[C@H](OC(=O)N2CC(CCN3CC(O)C3)C2)CC[C@]2(CO2)[C@H]1[C@@]1(C)O[C@@H]1CC=C(C)C [Example 6, (3R,4S,5S,6R)-5-methoxy-4-((2R,3R)-2-methyl-3-(3-methylbut-2-enyl)oxiran-2-yl)-1-oxaspiro[2.5]octan-6-yl 3-(2-(3-hydroxyazetidin-1-yl)ethyl)azetidine-1-carboxylate formate]
[1]; mouse, in vivo
  DIO Mouse 10-day weight loss vs vehicle: 11.8%
[2]; [4]
  EC50: < 0.3 nM
[3]; rat, in vivo, formate
  DIO Rat 11-day weight loss vs vehicle: 0.8% and 4.6%

## CO[C@@H]1[C@H](OC(=O)N2CC(CCN3CCC(O)CC3)C2)CC[C@]2(CO2)[C@H]1[C@@]1(C)O[C@@H]1CC=C(C)C [Example 7, (3R,4S,5S,6R)-5-methoxy-4-((2R,3R)-2-methyl-3-(3-methylbut-2-en-1-yl)oxiran-2-yl)-1-oxaspiro[2.5]octan-6-yl 3-(2-(4-hydroxypiperidin-1-yl)ethyl)azetidine-1-carboxylate]
[1]; DIO mouse, 0.3 mpk sc once a day, 10 days
  DIO Mouse 10-day weight loss vs vehicle: 1.8%

## CO[C@@H]1[C@H](OC(=O)N2CC(CCN3CC(C)(O)C3)C2)CC[C@]2(CO2)[C@H]1[C@@]1(C)O[C@@H]1CC=C(C)C [Example 9, (3R,4S,5S,6R)-5-methoxy-4-((2R,3R)-2-methyl-3-(3-methylbut-2-enyl)oxiran-2-yl)-1-oxaspiro[2.5]octan-6-yl 3-(2-(3-hydroxy-3-methylazetidin-1-yl)ethyl)azetidine-1-carboxylate formate]
[1]; mouse, in vivo
  DIO Mouse 10-day weight loss vs vehicle: 7.4%
[2]; [4]
  EC50: < 0.3 nM
[3]; rat, in vivo, formate
  DIO Rat 11-day weight loss vs vehicle: 5.5% and 4.8%

## CO[C@@H]1[C@H](OC(=O)N2CC(CCN3CC4C(C3)C4(F)F)C2)CC[C@]2(CO2)[C@H]1[C@@]1(C)O[C@@H]1CC=C(C)C (stereo partly drawn) [Example 22, (3R,4S,5S,6R)-5-methoxy-4-((2R,3R)-2-methyl-3-(3-methylbut-2-enyl)oxiran-2-yl)-1-oxaspiro[2.5]octan-6-yl 3-(2-(6,6-difluoro-3-azabicyclo[3.1.0]hexan-3-yl)ethyl)azetidine-1-carboxylate formate]
[1]; mouse, in vivo
  DIO Mouse 10-day weight loss vs vehicle: 14%
[2]; [4]
  EC50: 0.3 to 1.3 nM

## CO[C@@H]1[C@H](OC(=O)N2CC(CCCN3CCCC3)C2)CC[C@]2(CO2)[C@H]1[C@@]1(C)O[C@@H]1CC=C(C)C [Example 59, (3R,4S,5S,6R)-5-methoxy-4-((2R,3R)-2-methyl-3-(3-methylbut-2-enyl)oxiran-2-yl)-1-oxaspiro[2.5]octan-6-yl 3-(3-(pyrrolidin-1-yl)propyl)azetidine-1-carboxylate formate]
[1]; 240 h, DIO mouse, 0.3 mpk sc once a day, 10 days
  body weight loss vs vehicle at 0.3 mg/kg: 9.1%
Recombinant human MetAP2
  IC50: < 50 nM

## CNC(=O)OC1CN(C(=O)O[C@@H]2CC[C@]3(CO3)[C@@H]([C@@]3(C)O[C@@H]3CC=C(C)C)[C@@H]2OC)C1 [Example 74, (3R,4S,5S,6R)-5-methoxy-4-((2R,3R)-2-methyl-3-(3-methylbut-2-enyl)oxiran-2-yl)-1-oxaspiro[2.5]octan-6-yl 3-(methylcarbamoyloxy)azetidine-1-carboxylate]
[2]; [5]
  EC50: < 0.3 nM

## CCN(CC)CCNC(=O)CCC1CN(C(=O)O[C@@H]2CC[C@]3(CO3)[C@@H]([C@@]3(C)O[C@@H]3CC=C(C)C)[C@@H]2OC)C1 [Example 88, (3R,4S,5S,6R)-5-methoxy-4-((2R,3R)-2-methyl-3-(3-methylbut-2-enyl)oxiran-2-yl)-1-oxaspiro[2.5]octan-6-yl 3-(3-(2-(diethylamino)ethylamino)-3-oxopropyl)azetidine-1-carboxylate formate]
[1]; mouse, in vivo
  DIO Mouse 10-day weight loss vs vehicle: 9%
[2]; [4]
  EC50: 0.3 to 1.3 nM
[3]; rat, in vivo
  DIO Rat 11-day weight loss vs vehicle: 4.4%

## CCN(CC)CCC1CN(C(=O)O[C@@H]2CC[C@]3(CO3)[C@@H]([C@@]3(C)O[C@@H]3CC=C(C)C)[C@@H]2OC)C1 [Example 103, (3R,4S,5S,6R)-5-methoxy-4-((2R,3R)-2-methyl-3-(3-methylbut-2-enyl)oxiran-2-yl)-1-oxaspiro[2.5]octan-6-yl 3-(2-(diethylamino)ethyl)azetidine-1-carboxylate]
[2]; [5]
  EC50: < 0.3 nM

## CCN(CC)CCC1CCN1C(=O)O[C@@H]1CC[C@]2(CO2)[C@@H]([C@@]2(C)O[C@@H]2CC=C(C)C)[C@@H]1OC (stereo partly drawn) [Example 106, (3R,4S,5S,6R)-5-methoxy-4-((2R,3R)-2-methyl-3-(3-methylbut-2-enyl)oxiran-2-yl)-1-oxaspiro[2.5]octan-6-yl 2-(2-(diethylamino)ethyl)azetidine-1-carboxylate]
[1]; DIO mouse, 0.1 mpk sc once a day, 10 days
  DIO Mouse 10-day weight loss vs vehicle: 2%
[3]; DIO rat, 0.5 mpk sc once a day, 11 days
  DIO Rat 11-day weight loss vs vehicle: 4.82%
